Experiments:
[1] = test system: Puccinia recondita f. Sp. Tritici; experiment: Fungicidal activity against Puccinia recondita f. sp. tritici / wheat / leaf disc preventative (brown rust); assay type: in vivo; settings: foliar, 200 ppm in the applied formulation, wheat leaf segments, preventative, compared to untreated control leaf disks, read-out: disease control
Summary of the method: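 Percent disease control relative to untreated check segments is scored once disease develops, 7 to 9 days after application. Wheat cv. Kanzler segments receive compound spray (200 ppm in formulation) one day before spore inoculation, then sit at 19° C. and 75% rh under 12 h light/12 h dark.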

[2] = test system: Puccinia recondita f. Sp. Tritici; experiment: Fungicidal activity against Puccinia recondita f. sp. tritici / wheat / leaf disc curative (brown rust); assay type: in vivo; settings: foliar, 24 h, 200 ppm in the applied formulation, wheat leaf segments, curative (applied 1 day after inoculation), compared to untreated control leaf disks, read-out: disease control
Summary of the method: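 Curative test on wheat leaf segments (cv. Kanzler) on agar, inoculated with spore suspension and held dark at 19° C, 75% RH; formulated compound in water applied 1 day after inoculation. Incubated at 19° C, 75% RH, 12 h light/12 h dark; percent disease control versus untreated scored 6 to 8 days after application.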

[3] = test system: Phakopsora Pachyrhizi; experiment: Fungicidal activity against Phakopsora pachyrhizi / soybean / leaf disc preventative (Asian soybean rust); assay type: in vivo; settings: foliar, 200 ppm in the applied formulation, soybean leaf disks, compared to untreated control leaf disks, read-out: disease control
Summary of the method: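 Scored 12 to 14 days post-application as percent control relative to untreated check discs, rust spores were sprayed under the disc one day after compound treatment. Incubation: 20°C, 75% rh, first 24–36 h in darkness, then 12 h daily light; discs kept on water agar.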

[4] = test system: Glomerella lagenarium (Colletotrichum lagenarium); experiment: Fungicidal activity against Glomerella lagenarium (Colletotrichum lagenarium) liquid culture / cucumber / preventative (anthracnose); assay type: cell-based; settings: Colletotrichum orbiculare; 20 ppm in the applied formulation; liquid culture (PDB), growth inhibition measured photometrically after 3 to 4 days; compared to untreated control; read-out: disease control
Summary of the method: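 Percent activity against the untreated check was derived from photometric growth measurements made 2 to 7 days after conidia in potato dextrose broth were combined with compound at 20 ppm. Cultures were kept dark at 24 °C and 96% humidity.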

CCC(C)N(Cc1ccc(-c2noc(C(F)(F)F)n2)cc1)C(=O)COC (stereo not shown) [Compound 1.372, 2-methoxy-N-sec-bulyl-N-[[4-[5-(trifluoromethyl)-1,2,4-oxadiazol-3-yl]phenyl]methyl]-acetamide]
≥ 80%: pest or weed control at 200 ppm [1] | pest or weed control at 200 ppm [2] | pest or weed control at 200 ppm [3] | inhibition of growth at 20 ppm [4]

CCC(C)N(Cc1ccc(-c2noc(C(F)(F)F)n2)cc1)C(=O)CCOC (stereo not shown) [Compound 1.379, 3-methoxy-N-sec-butyl-N-[[4-[5-(trifluoromethyl)-1,2,4-oxadiazol-3-yl]phenyl]methyl]-propanamide]
≥ 80%: pest or weed control at 200 ppm [1] | pest or weed control at 200 ppm [2] | pest or weed control at 200 ppm [3] | inhibition of growth at 20 ppm [4]

CCC(C)N(Cc1ccc(-c2noc(C(F)(F)F)n2)cc1)C(=O)COCCOC (stereo not shown) [Compound 1.384, 2-(2-methoxyethoxy)-N-sec-butyl-N-[[4-[5-(trifluoromethyl)-1,2,4-oxadiazol-3-yl]phenyl]methyl]-acetamide]
≥ 80%: pest or weed control at 200 ppm [1] | pest or weed control at 200 ppm [2] | pest or weed control at 200 ppm [3] | inhibition of growth at 20 ppm [4]

C=CC(=O)N(Cc1ccc(-c2noc(C(F)(F)F)n2)cc1)C(C)CC (stereo not shown) [Compound 1.387, N-sec-butyl-N-[[4-[5-(trifluoromethyl)-1,2,4-oxadiazol-3-yl]phenyl]methyl]-prop-2-enamide]
≥ 80%: pest or weed control at 200 ppm [1] | pest or weed control at 200 ppm [2] | pest or weed control at 200 ppm [3] | inhibition of growth at 20 ppm [4]

CCC(=O)N(Cc1ccc(-c2noc(C(F)(F)F)n2)cc1)C(C)CC (stereo not shown) [Compound 1.389, N-sec-butyl-N-[[4-[5-(trifiuoromethyl)-1,2,4-oxadiazol-3-yl]phenyl]methyl]-propanamide]
≥ 80%: pest or weed control at 200 ppm [1] | pest or weed control at 200 ppm [2] | pest or weed control at 200 ppm [3] | inhibition of growth at 20 ppm [4]

C=C(C)C(=O)N(Cc1ccc(-c2noc(C(F)(F)F)n2)cc1)C(C)CC (stereo not shown) [Compound 1.390, 2-methyl-N-sec-butyl-N-[[4-[5-(trifluoromethyl)-1,2,4-oxadiazol-3-yl]phenyl]methyl]-prop-2-enamide]
≥ 80%: pest or weed control at 200 ppm [1] | pest or weed control at 200 ppm [2] | pest or weed control at 200 ppm [3] | inhibition of growth at 20 ppm [4]

CCC(C)N(Cc1ccc(-c2noc(C(F)(F)F)n2)cc1)C(=O)COC(C)=O (stereo not shown) [Compound 1.392, [2-oxo-2-[sec-butyl-[[4-[5-(trifluoromethyl)-1,2,4-oxadiazol-3-yl]phenyl]methyl]-amino]ethyl] acetate]
≥ 80%: pest or weed control at 200 ppm [1] | pest or weed control at 200 ppm [2] | pest or weed control at 200 ppm [3] | inhibition of growth at 20 ppm [4]

CCC(C)N(Cc1ccc(-c2noc(C(F)(F)F)n2)cc1)C(=O)C1(C)COC1 (stereo not shown) [Compound 1.395, 3-methyl-N-sec-butyl-N-[[4-[5-(trifluoromethyl)-1,2,4-oxadiazol-3-yl]phenyl]methyl]-oxetane-3-carboxamide]
≥ 80%: pest or weed control at 200 ppm [1] | pest or weed control at 200 ppm [2] | pest or weed control at 200 ppm [3] | inhibition of growth at 20 ppm [4]

CCC(C)N(Cc1ccc(-c2noc(C(F)(F)F)n2)cc1)C(=O)C1CCCO1 (stereo not shown) [Compound 1.398, N-sec-butyl-N-[[4-[5-(trifluoromethyl)-1,2,4-oxadiazol-3-yl]phenyl]methyl]-tetrahydrofuran-2-carboxamide]
≥ 80%: pest or weed control at 200 ppm [1] | pest or weed control at 200 ppm [2] | pest or weed control at 200 ppm [3] | inhibition of growth at 20 ppm [4]

CCC(C)N(Cc1ccc(-c2noc(C(F)(F)F)n2)cc1)C(=O)C1(C#N)CC1 (stereo not shown) [Compound 1.399, 1-cyano-N-sec-butyl-N-[[4-[5-(trifluoromethyl)-1,2,4-oxadiazol-3-yl]phenyl]methyl]-cyclopropane-carboxamide]
≥ 80%: pest or weed control at 200 ppm [1] | pest or weed control at 200 ppm [2] | pest or weed control at 200 ppm [3] | inhibition of growth at 20 ppm [4]

CCC(C)N(Cc1ccc(-c2noc(C(F)(F)F)n2)cc1)C(=O)C1CC1F (stereo not shown) [Compound 1.401, 2-fluoro-N-sec-butyl-N-[[4-[5-(trifluoromethyl)-1,2,4-oxadiazol-3-yl]phenyl]methyl]-cyclopropane-carboxamide]
≥ 80%: pest or weed control at 200 ppm [1] | pest or weed control at 200 ppm [2] | pest or weed control at 200 ppm [3] | inhibition of growth at 20 ppm [4]

CCC(C)N(Cc1ccc(-c2noc(C(F)(F)F)n2)cc1)C(=O)C(C)OC (stereo not shown) [Compound 1.402, 2-methoxy-N-sec-butyl-N-[[4-(5-(trifluoromethyl)-1,2,4-oxadiazol-3-yl]phenyl]methyl]-propanamide]
≥ 80%: pest or weed control at 200 ppm [1] | pest or weed control at 200 ppm [2] | pest or weed control at 200 ppm [3] | inhibition of growth at 20 ppm [4]

CCC(C)N(Cc1ccc(-c2noc(C(F)(F)F)n2)cc1)C(=O)C1OCCO1 (stereo not shown) [Compound 1.403, N-sec-butyl-N-[[4-[5-(trifluoromethyl)-1,2,4-oxadiazol-3-yl]phenyl]methyl]-1,3-dioxolane-2-carboxamide]
≥ 80%: pest or weed control at 200 ppm [1] | pest or weed control at 200 ppm [2] | pest or weed control at 200 ppm [3] | inhibition of growth at 20 ppm [4]

CCC(C)N(Cc1ccc(-c2noc(C(F)(F)F)n2)cc1)C(=O)CC(F)(F)F (stereo not shown) [Compound 1.404]
≥ 80%: pest or weed control at 200 ppm [1] | pest or weed control at 200 ppm [2] | pest or weed control at 200 ppm [3] | inhibition of growth at 20 ppm [4]

CCC(C)N(Cc1ccc(-c2noc(C(F)(F)F)n2)cc1)C(C)=O (stereo not shown) [Compound 1.407, N-sec-butyl-N-[[4-[5-(trifluoromethyl)-1,2,4-oxadiazol-3-yl]phenyl]methyl]-acetamide]
≥ 80%: pest or weed control at 200 ppm [1] | pest or weed control at 200 ppm [2] | pest or weed control at 200 ppm [3] | inhibition of growth at 20 ppm [4]

CCC(C)N(Cc1ccc(-c2noc(C(F)(F)F)n2)cc1)C(=O)CCCOC (stereo not shown) [Compound 1.408, 4-methoxy-N-sec-butyl-N-[[4-[5-(trifluoromethyl)-1,2,4-oxadiazol-3-yl]phenyl]methyl]-butanamide]
≥ 80%: pest or weed control at 200 ppm [1] | pest or weed control at 200 ppm [2] | pest or weed control at 200 ppm [3] | inhibition of growth at 20 ppm [4]

CC(C)C(=O)N(Cc1ccc(-c2noc(C(F)(F)F)n2)cc1)CC1CCCO1 (stereo not shown) [Compound 1.412, 2-methyl-N-(tetrahydrofuran-2-ylmethyl)-N-[[4-[5-(trifluoromethyl)-1,2,4-oxadiazol-3-yl]phenyl]methyl]-propanamide]
≥ 80%: pest or weed control at 200 ppm [1] | pest or weed control at 200 ppm [2] | pest or weed control at 200 ppm [3] | inhibition of growth at 20 ppm [4]

CCC(=O)N(Cc1ccc(-c2noc(C(F)(F)F)n2)cc1)CC1CCCO1 (stereo not shown) [Compound 1.432, N-(tetrahydrofuran-2-ylmethyl)-N-[[4-[5-(trifluoromethyl)-1,2,4-oxadiazol-3-yl]phenyl]methyl]-propanamide]
≥ 80%: pest or weed control at 200 ppm [1] | pest or weed control at 200 ppm [2] | pest or weed control at 200 ppm [3] | inhibition of growth at 20 ppm [4]

CCC(=O)N(Cc1ccc(-c2noc(C(F)(F)F)n2)cc1)Cc1ccco1 [Compound 1.457, N-(2-furylmethyl)-N-[[4-[5-(trifluoromethyl)-1,2,4-oxadiazol-3-yl]phenyl]methyl]-propanamide]
≥ 80%: pest or weed control at 200 ppm [1] | pest or weed control at 200 ppm [2] | pest or weed control at 200 ppm [3] | inhibition of growth at 20 ppm [4]

Reference: patent US11180462B2, “Microbiocidal oxadiazole derivatives” (SYNGENTA PARTICIPATIONS AG, priority 2015, dated 2021)
